Measured values as given in PMC9571063 (Molecules, 2022).

Columns and labels:
Assay in all cases: KINOMEscan
Assay type in all cases: binding
Conditions in all cases: read-out: Percent Control
FLT3(N841I) = biological target: T1, FLT3(N841I) (Homo sapiens, UniProt P36888, N841I)
T1 construct: purchased Eurofins DiscoverX KINOMEscan (scanMAX 468)

NDR1 = biological target: T2, NDR1 (Homo sapiens, UniProt Q15208)
T2 construct: purchased Eurofins DiscoverX KINOMEscan (scanMAX 468)

ICK = biological target: T3, ICK (Homo sapiens, UniProt Q9UPZ9)
T3 construct: purchased Eurofins DiscoverX KINOMEscan (scanMAX 468)

CSF1R = biological target: T4, CSF1R (Homo sapiens, UniProt P07333)
T4 construct: purchased Eurofins DiscoverX KINOMEscan (scanMAX 468)

ERK4 = biological target: T5, ERK4 (Homo sapiens, UniProt P31152)
T5 construct: purchased Eurofins DiscoverX KINOMEscan (scanMAX 468)

ALK(L1196M) = biological target: T6, ALK(L1196M) (Homo sapiens, UniProt Q9UM73, L1196M)
T6 construct: purchased Eurofins DiscoverX KINOMEscan (scanMAX 468)

RIPK5 = biological target: T7, RIPK5 (Homo sapiens, UniProt Q6XUX3)
T7 construct: purchased Eurofins DiscoverX KINOMEscan (scanMAX 468)

PCTK3 = biological target: T8, PCTK3 (Homo sapiens, UniProt Q07002)
T8 construct: purchased Eurofins DiscoverX KINOMEscan (scanMAX 468)

GRK3 = biological target: T9, GRK3 (Homo sapiens, UniProt P35626)
T9 construct: purchased Eurofins DiscoverX KINOMEscan (scanMAX 468)
T9 sequence (P35626 whole entry): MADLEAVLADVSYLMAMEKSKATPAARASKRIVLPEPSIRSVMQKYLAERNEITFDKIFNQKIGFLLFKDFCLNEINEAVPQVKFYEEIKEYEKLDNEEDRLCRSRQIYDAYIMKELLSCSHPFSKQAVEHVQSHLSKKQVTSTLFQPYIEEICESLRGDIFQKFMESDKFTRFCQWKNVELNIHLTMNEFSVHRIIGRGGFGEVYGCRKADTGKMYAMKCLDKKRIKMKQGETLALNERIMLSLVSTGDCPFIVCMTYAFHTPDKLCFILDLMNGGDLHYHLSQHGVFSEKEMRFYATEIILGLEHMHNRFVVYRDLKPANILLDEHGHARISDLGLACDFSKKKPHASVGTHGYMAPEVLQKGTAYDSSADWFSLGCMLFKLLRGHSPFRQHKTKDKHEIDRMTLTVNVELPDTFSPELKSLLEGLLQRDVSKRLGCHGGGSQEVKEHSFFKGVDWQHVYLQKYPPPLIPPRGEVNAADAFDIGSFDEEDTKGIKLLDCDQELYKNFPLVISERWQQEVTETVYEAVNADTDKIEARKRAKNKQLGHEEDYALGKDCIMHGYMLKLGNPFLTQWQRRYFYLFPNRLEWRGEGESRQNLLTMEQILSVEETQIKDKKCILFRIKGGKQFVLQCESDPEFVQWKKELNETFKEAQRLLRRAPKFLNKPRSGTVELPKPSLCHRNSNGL

YANK2 = biological target: T10, YANK2 (Homo sapiens, UniProt Q9NY57)
T10 construct: purchased Eurofins (KINOMEscan, DiscoverX)

PFTAIRE2 = biological target: T11, PFTAIRE2 (Homo sapiens, UniProt Q96Q40)
T11 construct: purchased Eurofins DiscoverX KINOMEscan (scanMAX 468)

ACVR2B = biological target: T12, ACVR2B (Homo sapiens, UniProt Q13705)
T12 construct: purchased Eurofins DiscoverX KINOMEscan (scanMAX 468)

BIKE = biological target: T13, BIKE (Homo sapiens, UniProt Q9NSY1)
T13 construct: purchased Eurofins DiscoverX KINOMEscan (scanMAX 468)

TSSK1B = biological target: T14, TSSK1B (Homo sapiens, UniProt Q9BXA7)
T14 construct: purchased Eurofins DiscoverX KINOMEscan (scanMAX 468)

ACVR2A = biological target: T15, ACVR2A (Homo sapiens, UniProt P27037)
T15 construct: purchased Eurofins DiscoverX KINOMEscan (scanMAX 468)

YANK3 = biological target: T16, YANK3 (Homo sapiens, UniProt Q86UX6)
T16 construct: purchased Eurofins (KINOMEscan, DiscoverX)

[1] = biological target: T17, ABL1(Y253F)-phosphorylated (Homo sapiens, UniProt P00519, Y253F)
T17 construct: purchased Eurofins DiscoverX KINOMEscan (scanMAX 468)

CSNK1A1L = biological target: T18, CSNK1A1L (Homo sapiens, UniProt Q8N752)
T18 construct: purchased Eurofins DiscoverX KINOMEscan (scanMAX 468)

TNK1 = biological target: T19, TNK1 (Homo sapiens, UniProt Q13470)
T19 construct: purchased Eurofins DiscoverX KINOMEscan (scanMAX 468)

PLK1 = biological target: T20, PLK1 (Homo sapiens, UniProt P53350)
T20 construct: purchased Eurofins DiscoverX KINOMEscan (scanMAX 468)

MKK7 = biological target: T21, MKK7 (Homo sapiens, UniProt O14733)
T21 construct: purchased Eurofins DiscoverX KINOMEscan (scanMAX 468)
T21 sequence (O14733 whole entry): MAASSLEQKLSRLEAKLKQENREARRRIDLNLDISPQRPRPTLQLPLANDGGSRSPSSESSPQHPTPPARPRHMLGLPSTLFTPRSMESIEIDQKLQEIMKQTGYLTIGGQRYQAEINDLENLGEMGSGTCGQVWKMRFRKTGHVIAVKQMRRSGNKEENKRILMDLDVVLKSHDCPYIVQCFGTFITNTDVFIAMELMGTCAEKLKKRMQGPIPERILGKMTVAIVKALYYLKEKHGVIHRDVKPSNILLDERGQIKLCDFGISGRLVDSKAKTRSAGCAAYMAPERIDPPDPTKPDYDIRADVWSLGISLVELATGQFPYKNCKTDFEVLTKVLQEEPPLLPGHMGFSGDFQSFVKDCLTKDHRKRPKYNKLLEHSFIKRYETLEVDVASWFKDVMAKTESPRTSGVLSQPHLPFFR

GSK3A = biological target: T22, GSK3A (Homo sapiens, UniProt P49840)
T22 construct: purchased Eurofins DiscoverX KINOMEscan (scanMAX 468)

FLT3(K663Q) = biological target: T23, FLT3(K663Q) (Homo sapiens, UniProt P36888, K663Q)
T23 construct: purchased Eurofins DiscoverX KINOMEscan (scanMAX 468)

ACVR1 = biological target: T24, ACVR1 (Homo sapiens, UniProt Q04771)
T24 construct: purchased Eurofins DiscoverX KINOMEscan (scanMAX 468)

PKAC-beta = biological target: T25, PKAC-beta (Homo sapiens, UniProt P22694)
T25 construct: purchased Eurofins DiscoverX KINOMEscan (scanMAX 468)

DMPK = biological target: T26, DMPK (Homo sapiens, UniProt Q09013)
T26 construct: purchased Eurofins DiscoverX KINOMEscan (scanMAX 468)

DMPK2 = biological target: T27, DMPK2 (Homo sapiens, UniProt Q6DT37)
T27 construct: purchased Eurofins DiscoverX KINOMEscan (scanMAX 468)

LATS2 = biological target: T28, LATS2 (Homo sapiens, UniProt Q9NRM7)
T28 construct: purchased Eurofins DiscoverX KINOMEscan (scanMAX 468)

LYN = biological target: T29, LYN (Homo sapiens, UniProt P07948)
T29 construct: purchased Eurofins DiscoverX KINOMEscan (scanMAX 468)

PAK1 = biological target: T30, PAK1 (Homo sapiens, UniProt Q13153)
T30 construct: purchased Eurofins DiscoverX KINOMEscan (scanMAX 468)

SIK2 = biological target: T31, SIK2 (Homo sapiens, UniProt Q9H0K1)
T31 construct: purchased Eurofins DiscoverX KINOMEscan (scanMAX 468)

MELK = biological target: T32, MELK (Homo sapiens, UniProt Q14680)
T32 construct: purchased Eurofins DiscoverX KINOMEscan (scanMAX 468)

PRKD2 = biological target: T33, PRKD2 (Homo sapiens, UniProt Q9BZL6)
T33 construct: purchased Eurofins DiscoverX KINOMEscan (scanMAX 468)
T33 sequence (Q9BZL6 whole entry): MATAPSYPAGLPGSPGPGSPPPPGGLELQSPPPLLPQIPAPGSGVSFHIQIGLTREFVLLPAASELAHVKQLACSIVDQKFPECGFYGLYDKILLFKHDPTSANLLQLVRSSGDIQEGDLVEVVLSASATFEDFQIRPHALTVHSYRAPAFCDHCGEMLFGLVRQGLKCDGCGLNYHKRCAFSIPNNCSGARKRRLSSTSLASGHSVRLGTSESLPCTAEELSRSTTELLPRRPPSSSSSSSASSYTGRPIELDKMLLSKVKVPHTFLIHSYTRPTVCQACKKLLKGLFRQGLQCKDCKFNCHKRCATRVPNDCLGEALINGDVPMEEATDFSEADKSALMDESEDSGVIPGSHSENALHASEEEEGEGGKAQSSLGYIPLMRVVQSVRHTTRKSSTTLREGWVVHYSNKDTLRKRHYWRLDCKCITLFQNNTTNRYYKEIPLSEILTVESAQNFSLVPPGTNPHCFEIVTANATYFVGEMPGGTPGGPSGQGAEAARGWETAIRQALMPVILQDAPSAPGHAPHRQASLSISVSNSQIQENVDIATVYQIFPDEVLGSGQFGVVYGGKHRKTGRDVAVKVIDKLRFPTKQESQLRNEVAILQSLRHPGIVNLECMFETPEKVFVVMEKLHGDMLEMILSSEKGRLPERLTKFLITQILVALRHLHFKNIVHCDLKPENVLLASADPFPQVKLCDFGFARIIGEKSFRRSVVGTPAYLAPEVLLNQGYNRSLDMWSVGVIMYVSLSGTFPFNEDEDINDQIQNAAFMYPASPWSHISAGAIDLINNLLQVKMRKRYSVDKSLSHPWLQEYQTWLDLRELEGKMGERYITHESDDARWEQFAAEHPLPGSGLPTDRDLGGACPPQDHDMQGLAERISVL

HIPK2 = biological target: T34, HIPK2 (Homo sapiens, UniProt Q9H2X6)
T34 construct: purchased Eurofins DiscoverX KINOMEscan (scanMAX 468)

ZAK = biological target: T35, ZAK (Homo sapiens, UniProt Q9NYL2)
T35 construct: purchased Eurofins (KINOMEscan, DiscoverX)

SRMS = biological target: T36, SRMS (Homo sapiens, UniProt Q9H3Y6)
T36 construct: purchased Eurofins DiscoverX KINOMEscan (scanMAX 468)

CDK4-cyclinD1 = biological target: T37, CDK4-cyclinD1 (Homo sapiens, UniProt P11802)
T37 construct: purchased Eurofins DiscoverX KINOMEscan (scanMAX 468)

BUB1 = biological target: T38, BUB1 (Homo sapiens, UniProt O43683)
T38 construct: purchased Eurofins DiscoverX KINOMEscan (scanMAX 468)

PIKFYVE = biological target: T39, PIKFYVE (Homo sapiens, UniProt Q9Y2I7)
T39 construct: purchased Eurofins DiscoverX KINOMEscan (scanMAX 468)

PRKCQ = biological target: T40, PRKCQ (Homo sapiens, UniProt Q04759)
T40 construct: purchased Eurofins DiscoverX KINOMEscan (scanMAX 468)
T40 sequence (Q04759 whole entry): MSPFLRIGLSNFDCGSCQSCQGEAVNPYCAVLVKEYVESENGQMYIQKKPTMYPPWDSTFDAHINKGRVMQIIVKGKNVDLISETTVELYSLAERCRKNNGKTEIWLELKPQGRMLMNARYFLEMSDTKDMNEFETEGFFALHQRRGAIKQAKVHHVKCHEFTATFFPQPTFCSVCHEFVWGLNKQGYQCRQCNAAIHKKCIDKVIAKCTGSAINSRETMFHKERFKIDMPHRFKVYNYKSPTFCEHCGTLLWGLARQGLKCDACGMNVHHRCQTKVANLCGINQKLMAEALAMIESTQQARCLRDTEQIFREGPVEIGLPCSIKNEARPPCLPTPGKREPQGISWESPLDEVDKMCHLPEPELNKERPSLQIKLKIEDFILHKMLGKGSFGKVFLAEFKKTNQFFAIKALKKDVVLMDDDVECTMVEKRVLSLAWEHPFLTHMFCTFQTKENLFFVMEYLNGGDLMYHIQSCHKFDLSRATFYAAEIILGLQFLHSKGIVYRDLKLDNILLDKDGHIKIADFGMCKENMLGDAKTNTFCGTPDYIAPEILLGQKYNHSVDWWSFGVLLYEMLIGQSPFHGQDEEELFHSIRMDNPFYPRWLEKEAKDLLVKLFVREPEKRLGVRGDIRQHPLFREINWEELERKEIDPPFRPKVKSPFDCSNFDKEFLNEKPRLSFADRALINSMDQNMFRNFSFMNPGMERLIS

MERTK = biological target: T41, MERTK (Homo sapiens, UniProt Q12866)
T41 construct: purchased Eurofins DiscoverX KINOMEscan (scanMAX 468)
T41 sequence (Q12866 21-999): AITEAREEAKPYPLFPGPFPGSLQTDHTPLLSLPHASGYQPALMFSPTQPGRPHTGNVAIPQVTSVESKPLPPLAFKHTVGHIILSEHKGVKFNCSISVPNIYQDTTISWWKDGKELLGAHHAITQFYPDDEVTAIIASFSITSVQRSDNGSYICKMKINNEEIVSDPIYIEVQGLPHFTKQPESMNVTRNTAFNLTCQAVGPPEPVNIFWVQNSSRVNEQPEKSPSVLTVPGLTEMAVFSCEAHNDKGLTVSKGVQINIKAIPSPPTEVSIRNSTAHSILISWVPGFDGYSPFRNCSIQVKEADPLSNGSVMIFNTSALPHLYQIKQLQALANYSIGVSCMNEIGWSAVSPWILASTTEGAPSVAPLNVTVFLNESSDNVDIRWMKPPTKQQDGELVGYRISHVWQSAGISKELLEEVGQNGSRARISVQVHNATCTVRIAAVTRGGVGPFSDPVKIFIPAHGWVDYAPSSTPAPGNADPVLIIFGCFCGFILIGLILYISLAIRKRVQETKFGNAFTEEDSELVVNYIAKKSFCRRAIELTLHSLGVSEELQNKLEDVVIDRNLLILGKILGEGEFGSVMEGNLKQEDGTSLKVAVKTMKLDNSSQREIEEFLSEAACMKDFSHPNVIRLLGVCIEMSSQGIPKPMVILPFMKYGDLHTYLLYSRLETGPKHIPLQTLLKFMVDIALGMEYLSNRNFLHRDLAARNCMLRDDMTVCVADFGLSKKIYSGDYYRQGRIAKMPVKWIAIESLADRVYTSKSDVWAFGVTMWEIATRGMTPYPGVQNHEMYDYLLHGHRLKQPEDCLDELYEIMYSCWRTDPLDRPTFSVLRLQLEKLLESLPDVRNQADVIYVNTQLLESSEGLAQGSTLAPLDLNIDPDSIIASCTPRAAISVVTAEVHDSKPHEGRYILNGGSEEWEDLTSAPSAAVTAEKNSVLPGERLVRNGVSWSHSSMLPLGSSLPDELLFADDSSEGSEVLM

DAPK1 = biological target: T42, DAPK1 (Homo sapiens, UniProt P53355)
T42 construct: purchased Eurofins DiscoverX KINOMEscan (scanMAX 468)
T42 sequence (P53355 whole entry): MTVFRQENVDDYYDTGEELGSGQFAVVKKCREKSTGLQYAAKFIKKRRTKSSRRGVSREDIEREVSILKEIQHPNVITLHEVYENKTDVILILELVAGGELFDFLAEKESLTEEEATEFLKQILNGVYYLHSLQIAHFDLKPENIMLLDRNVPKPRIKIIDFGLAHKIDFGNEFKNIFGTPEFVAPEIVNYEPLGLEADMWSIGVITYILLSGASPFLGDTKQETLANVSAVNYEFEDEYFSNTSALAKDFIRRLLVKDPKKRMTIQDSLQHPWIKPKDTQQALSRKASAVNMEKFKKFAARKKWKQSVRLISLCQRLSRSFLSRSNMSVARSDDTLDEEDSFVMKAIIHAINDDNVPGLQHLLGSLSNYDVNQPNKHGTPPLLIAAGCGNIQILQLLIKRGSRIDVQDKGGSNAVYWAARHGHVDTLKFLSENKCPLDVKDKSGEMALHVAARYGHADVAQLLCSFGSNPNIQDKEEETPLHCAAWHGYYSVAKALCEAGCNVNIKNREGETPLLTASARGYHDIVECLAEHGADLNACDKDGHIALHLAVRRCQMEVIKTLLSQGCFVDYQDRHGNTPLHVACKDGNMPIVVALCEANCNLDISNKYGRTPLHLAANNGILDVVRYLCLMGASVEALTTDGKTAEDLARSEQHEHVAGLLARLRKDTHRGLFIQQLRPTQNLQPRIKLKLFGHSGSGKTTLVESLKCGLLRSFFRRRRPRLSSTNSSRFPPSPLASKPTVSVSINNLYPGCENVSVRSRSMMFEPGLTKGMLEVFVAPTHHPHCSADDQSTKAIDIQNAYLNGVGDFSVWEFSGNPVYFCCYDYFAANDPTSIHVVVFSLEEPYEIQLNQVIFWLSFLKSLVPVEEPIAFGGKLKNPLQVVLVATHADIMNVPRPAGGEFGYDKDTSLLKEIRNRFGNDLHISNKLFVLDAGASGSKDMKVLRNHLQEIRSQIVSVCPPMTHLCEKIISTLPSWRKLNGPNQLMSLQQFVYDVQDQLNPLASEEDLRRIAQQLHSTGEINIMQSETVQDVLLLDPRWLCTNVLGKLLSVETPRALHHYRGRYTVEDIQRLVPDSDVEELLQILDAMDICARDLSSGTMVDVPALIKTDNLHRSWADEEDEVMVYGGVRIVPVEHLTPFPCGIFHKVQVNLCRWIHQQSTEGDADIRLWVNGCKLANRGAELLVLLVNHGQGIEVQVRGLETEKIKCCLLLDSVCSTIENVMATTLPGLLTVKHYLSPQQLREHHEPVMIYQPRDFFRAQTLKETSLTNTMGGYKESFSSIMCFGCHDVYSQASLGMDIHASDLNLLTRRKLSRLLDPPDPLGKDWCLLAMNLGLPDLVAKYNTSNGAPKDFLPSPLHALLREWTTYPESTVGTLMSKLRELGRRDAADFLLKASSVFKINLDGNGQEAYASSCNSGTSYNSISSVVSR

AMPK-alpha2 = biological target: T43, AMPK-alpha2 (Homo sapiens, UniProt P54646)
T43 construct: purchased Eurofins DiscoverX KINOMEscan (scanMAX 468)

PFPK5(P.falciparum) = biological target: T44, PFPK5(P.falciparum) (Plasmodium falciparum, UniProt P61075)
T44 construct: purchased Eurofins DiscoverX KINOMEscan (scanMAX 468)

Cc1ccc(-n2cc(COc3cccc4cnc(Nc5cccc(Cl)c5)nc34)nn2)c([N+](=O)[O-])c1 [DB18]
remaining binding at 1 µM (FLT3(N841I)): 77% | remaining binding at 1 µM (NDR1): 89% | remaining binding at 1 µM (ICK): 81% | remaining binding at 1 µM (CSF1R): 100% | remaining binding at 1 µM (ERK4): 100% | remaining binding at 1 µM (ALK(L1196M)): 98% | remaining binding at 1 µM (RIPK5): 100% | remaining binding at 1 µM (PCTK3): 100% | remaining binding at 1 µM (GRK3): 89% | remaining binding at 1 µM (YANK2): 100% | remaining binding at 1 µM (PFTAIRE2): 95% | remaining binding at 1 µM (ACVR2B): 100% | remaining binding at 1 µM (BIKE): 99% | remaining binding at 1 µM (TSSK1B): 100% | remaining binding at 1 µM (ACVR2A): 100% | remaining binding at 1 µM (YANK3): 100% | remaining binding at 1 µM [1]: 97% | remaining binding at 1 µM (CSNK1A1L): 100% | remaining binding at 1 µM (TNK1): 100% | remaining binding at 1 µM (PLK1): 100% | remaining binding at 1 µM (MKK7): 100% | remaining binding at 1 µM (GSK3A): 100% | remaining binding at 1 µM (FLT3(K663Q)): 69% | remaining binding at 1 µM (ACVR1): 100% | remaining binding at 1 µM (PKAC-beta): 100% | remaining binding at 1 µM (DMPK): 100% | remaining binding at 1 µM (DMPK2): 100% | remaining binding at 1 µM (LATS2): 100% | remaining binding at 1 µM (LYN): 93% | remaining binding at 1 µM (PAK1): 100% | remaining binding at 1 µM (SIK2): 100% | remaining binding at 1 µM (MELK): 100% | remaining binding at 1 µM (PRKD2): 100% | remaining binding at 1 µM (HIPK2): 33% | remaining binding at 1 µM (ZAK): 97% | remaining binding at 1 µM (SRMS): 98% | remaining binding at 1 µM (CDK4-cyclinD1): 93% | remaining binding at 1 µM (BUB1): 97% | remaining binding at 1 µM (PIKFYVE): 61% | remaining binding at 1 µM (PRKCQ): 100% | remaining binding at 1 µM (MERTK): 100% | remaining binding at 1 µM (DAPK1): 100% | remaining binding at 1 µM (AMPK-alpha2): 91% | remaining binding at 1 µM (PFPK5(P.falciparum)): 100%
